Square brackets hold non-standard residues; d marks the D form. Peptide text beside a SMILES is read from it. Orn = NCCC[C@H](N)C(=O)O; βAla = NCCC(=O)O
Legend:
Type in all cases: cell-based, human
[1] = system: BC-1; assay: Flow cytometry, cell proliferation (Ki67 staining); settings: BC-1, 24 h
Description: (§1) Leukoreduction system chambers (LRS) from healthy donors were purchased from Vitalant. Peripheral blood mononuclear cells (PBMCs) were prepared by a standard Ficoll gradient method. PBMCs along with THP-1 and BCBL-1 cell lines (2 × 10^6 cells/ml, 0.2 ml 10% FBS/RPMI/DMEM per well of a 96-well plate) were treated with various doses (0–256 μM) of either VGN50 peptide or control mutant peptide for 24 h. Cell death, apoptosis, and proliferation were analyzed by flow cytometry (BD Acuri) after intracellular staining with anti-humanKi67-Alexa488 (Biolegend, 1:100) along with the isotype control antibody, annexin-V-FITC with 7-AAD staining (Biolegend) according to the manufacture’s protocol, Live/dead Fixable Red Dead Cell staining kit (Invitrogen) according to the manufacture’s protocol, or MTT assay. Peptides were commercially synthesized (GenScript) with >90% purity with TFA removal. […]
(§2) Isotype control Anti-Ki67 antibody
(§3) S-Figure 3. Flow cytometry analyses […]
(§4) Repr esent at i ve FACS pl ot s wi t h ancest r y gat i ng st r at egy of Ki 67+ popul at i on f or
(§5) BCBL-1 and BC-1 cel l s t r eat ed wi t h PBS wi t h an i sot ype cont r ol ar e shown. Mean +/-SD of
(§6) Ki 67% of t ot al BCBL-1 and BC-1 cel l s anal yzed ar e shown i n Fi g. 2e.

[2] = system: BCBL-1; assay: Flow cytometry, cell proliferation (Ki67 staining); settings: BCBL-1, 24 h
Description: as §1, §2, §3, §4, §5, §6

[3] = system: BC-1 cells; assay: MTT assay, deletion and mutant peptides; settings: BC-1, 64 μM
Excerpt: Fig. 2 Viral and cellular responses to K-Rta peptide; identification of VGN50. a Protein sequence alignment. Homologous protein sequences were searched for with BLAST and extracted from other gamma-herpesviral homologs. The consensus protein sequence is depicted at the bottom of table. b Peptide design. Deletion peptides were designed based on the consensus sequence in a. The TAT protein sequence was used as a cell-penetrating peptide (CPP) and placed downstream from the K-Rta protein sequence. (d-R) D amino acid arginine, (ORN) ornithine, (bAla) beta alanine. c Sub cellular peptide localization. Cy5-labeled peptide 1 was used to track subcellular localization. Nuclei were visualized by DAPI staining. The scale is indicated in the panel. d MTT assays with deletion and mutant peptides. Peptide listed in b were incubated with BC-1 cells and MTT conversion was measured 48 h after incubation. The OD of mock-treated samples were set as 100%, and OD from detergent-treated cells were set as 0%. The amount of each peptide used for incubation is depicted along the x-axis. Mean percentage viability ±SD were calculated for each treatment group (n = 3 samples). Peptide 1 was renamed as VGN50. e Flow cytometry analyses of cell proliferation and apoptosis induction. Cells were incubated with VGN50 or mutant peptide (three alanine substitutions) for 24 h followed by measurements of percentage cell proliferation (Ki67 staining) and apoptosis induction (Annexin V staining). Standard deviation bars are included. (n = 3) Two-way Anova, followed by Sidak’s multiple comparisons test. f The effect of VGN50 on various cancer cell types. MTT assays were performed with the indicated cell lines treated with various VGN50 concentrations. The OD of mock-treated samples were set as 100%, and OD from detergent-treated cells were set as 0%. Mean percentage viability ±SD was calculated for each treatment (n = 3 samples/treatment). g Viability assay with flow cytometry. Cell viability was measured in triplicate with live/dead staining and the cell killing effects on cancer cells was compared with normal peripheral blood mononuclear cells (PBMC) from three healthy donors. Results are presented as mean percentage viability ±SD (n = 3 samples/group). f, g Ordinary one-way Anova, followed by Tukey’s multiple comparisons test. […]
Leukoreduction system chambers (LRS) from healthy donors were purchased from Vitalant. […] Cell death, apoptosis, and proliferation were analyzed by flow cytometry (BD Acuri) after intracellular staining with anti-humanKi67-Alexa488 (Biolegend, 1:100) along with the isotype control antibody, annexin-V-FITC with 7-AAD staining (Biolegend) according to the manufacture’s protocol, Live/dead Fixable Red Dead Cell staining kit (Invitrogen) according to the manufacture’s protocol, or MTT assay. […]

Compound: CC(C)C[C@H](NC(=O)CCNC(=O)[C@H](CCCNC(=N)N)NC(=O)[C@H](CCCNC(=N)N)NC(=O)[C@H](CCCNC(=N)N)NC(=O)[C@H](CCCN)NC(=O)[C@H](CCCNC(=N)N)NC(=O)[C@H](CCCNC(=N)N)NC(=O)[C@H](CCCCN)NC(=O)[C@H](CCCCN)NC(=O)[C@H](N)CCCNC(=N)N)C(=O)N[C@@H](CO)C(=O)N[C@@H](CO)C(=O)N[C@@H](C)C(=O)N[C@@H](C)C(=O)N[C@@H](C)C(=O)NCC(=O)N[C@@H](CC(C)C)C(=O)N[C@@H](Cc1ccc(O)cc1)C(=O)N[C@@H](CCC(N)=O)C(=O)N[C@@H](CC(C)C)C(=O)N[C@@H](CC(=O)O)C(=O)N[C@H](C(=O)O)[C@@H](C)O [Mt-P] (H-[dR]KKRR[Orn]RRR[βAla]LSSAAAGLYQLDT-OH; N-terminus and C-terminus assumed)
- Ki67% ([1]; replicate 1): 43.3912%
- Ki67% ([1]; replicate 2): 42.2259%
- Ki67% ([1]; replicate 3): 43.3434%
- Ki67% ([2]; replicate 1): 33.8765%
- Ki67% ([2]; replicate 2): 32.9445%
- Ki67% ([2]; replicate 3): 29.2345%
- Reduction of cell viability (MTT) compared to untreated control [3]: 20%

Source: article PMC8639922, “KSHV transactivator-derived small peptide traps coactivators to attenuate MYC and inhibits leukemia and lymphoma cell growth” (Communications Biology, 2021)
